Tested on: animal model in which schizophrenia-like symptoms were induced by treatment with dizocilpine (MK-801)
Assay: Social interaction animal behavior test in rats with schizophrenia-like symptoms induced by dizocilpine (MK-801)
Type: in vivo, rat (Wistar, male)
Conditions: for Social interaction (Mean ± SEM) = total time of active social interactions of sniffing, grooming, licking, mounting and crawling: male Wistar rats in pairs, 5 min observation, dizocilpine 0.1 mg/kg sc 4 h before, aripiprazole 0.003 mg/kg po and/or test compound 3 mg/kg po 1 h before, 20 pairs; for total time average of active social interactions: mean±SEM, aripiprazole 0.003 mg/kg and/or test compound 3 mg/kg po; for total time average of active social interactions / Recovery rate compared to negative control: dizocilpine 0.1 mg/kg sc; for Statistical significance compared to negative control (P < 0.05?) / Statistical significance compared to positive control (P < 0.05?): one-way ANOVA, Dunnett's test; for Statistical significance compared to negative control (P < 0.05?): negative control = dizocilpine only; for Statistical significance compared to negative control (P < 0.05?) / Statistical significance compared to positive control (P < 0.05?) / Recovery rate compared to negative control: aripiprazole 0.003 mg/kg po and/or test compound 3 mg/kg po; for Statistical significance compared to positive control (P < 0.05?): positive control = vehicle group; for Recovery rate compared to negative control: versus dizocilpine-only negative control and vehicle positive control
Description: The antipsychotic activity of the carbamate compounds of Formula 1 and aripiprazole against schizophrenia can be tested through social interaction animal behavior tests used in drug development for the negative symptoms of schizophrenia (Neill J C, Grayson B, Kiss B, Gyertyán I, Ferguson P, Adham N, Effects of cariprazine, a novel antipsychotic, on cognitive deficit and negative symptoms in a rodent model of schizophrenia symptomatology, Eur Neuropsychopharmacol. 2016 January; 26(1):3-14). […] Dizocilpine (MK-801) is an N-methyl-D-aspartate (NMDA) receptor inhibitor. In the dizocilpine-induced (MK-801-induced) social interaction animal behavior test, schizophrenia-like symptoms can be induced by administration of dizocilpine (Rung J P, Carlsson A, Ryden Markinhuhta K, Carlsson M L, (+)-MK-801 induced social withdrawal in rats; a model for negative symptoms of schizophrenia. Prog Neuropsychopharmacol Biol Psychiatry. 2005 June; 29(5):827-32). Aripiprazole, known as an atypical antipsychotic drug, inhibits schizophrenia-like symptoms in proportion to the dose of dizocilpine (Deiana S, Watanabe A, Yamasaki Y, Amada N, Kikuchi T, Stott C, Riedel G, MK-801-induced deficits in social recognition in rats: reversal by aripiprazole, but not olanzapine, risperidone, or cannabidiol. Behav Pharmacol. 2015 December; 26 (8 Spec No): 748-65).
Male rats (Wistar, 4 weeks old, Orient Bio Co., Ltd.) were purchased, divided into 2 groups in an animal breeding room and acclimatized for more than 1 week on separate shelves. The experimental animals were housed and maintained in accordance with the Laboratory Animal Care Standards of the Institutional Animal Care and Use Committee (IACUC) under conditions of light-and-darkness cycle of 12 hours, a temperature of 22 to 25° C., a relative humidity of 40-60% and free access to food and water.
Thus, an animal model is used in which schizophrenia-like symptoms can be induced by treatment of dizocilpine, an N-methyl-D-aspartate (NMDA) receptor inhibitor.
Dizocilpine (purchased from Sigma) was newly prepared by dissolving it in physiological saline used as a vehicle, and 4 hours before the experiment, a 0.1 mg/kg dose was administered subcutaneously in a volume of 1 ml per 1 kg of body weight of the rat.
Aripiprazole and the test compound were newly prepared by dissolving them in 30% polyethylene glycol 400 (Sigma) used as a vehicle. One hour before the experiment, a 0.003 mg/kg dose of aripiprazole and a 3 mg/kg dose of the test compound were administered orally in a volume of 1 ml per 1 kg of body weight of the rat.
The male rats were placed in the same observation box in pairs, allowing 1:1 interaction, and then the total time of sniffing, grooming, licking, mounting and crawling under or over the other rat which can be considered as active social interactions was measured for 5 minutes, and social interaction was evaluated based on that.
All data are expressed as mean±SEM. Statistical analysis of the total time of active social interactions between groups was performed using the GraphPad Prism ver. 5.04 program, and analyzed by one-way ANOVA (one-way analysis of variance) and Dunnett's multiple comparison test.
The recovery rate was calculated as follows.

Row | SMILES | Social interaction (Mean ± SEM) = total time of active social interactions of sniffing, grooming, licking, mounting and crawling | total time average of active social interactions | Statistical significance compared to negative control (P < 0.05?) | Statistical significance compared to negative control (P < 0.05?) (listed as aripiprazole) | Statistical significance compared to positive control (P < 0.05?) | Statistical significance compared to positive control (P < 0.05?) (listed as aripiprazole) | Recovery rate compared to negative control | Recovery rate compared to negative control (listed as aripiprazole) | Statistical significance compared to negative control (P < 0.05?) (listed as test compound) | Statistical significance compared to positive control (P < 0.05?) (listed as test compound) | Recovery rate compared to negative control (listed as test compound)
1 | O=C1CCc2ccc(OCCCCN3CCN(c4cccc(Cl)c4Cl)CC3)cc2N1 [Aripiprazole, 7-{4-[4-(2,3-dichlorophenyl)piperazin-1-yl]butoxy}-3,4-dihydroquinolin-2(1H)-one] | 57.52 ± 3.04 s | 57.52 ± 3.04 s | Not significant | no statistically significant difference | Significant | statistically significant difference | 23.2% | 23.2% | – | – | –
2 | C[C@]12N[C@H](Cc3ccccc31)c1ccccc12 [Dizocilpine] | 53.86 ± 2.90 s | 53.86 ± 2.90 s | – | – | Significant | – | 0.0% | – | – | – | –
3 | NC(=O)O[C@@H](Cn1ncnn1)c1ccccc1Cl [Test compound, Carbamic acid (R)-1-(2-chlorophenyl)-2-tetrazol-2-yl-ethyl ester] | 56.78 ± 2.19 s | 56.78 ± 2.19 s | Not significant | – | Significant | – | 18.5% | – | no statistically significant difference | statistically significant difference | 18.5%
